Data reported in patent US8097629B2, “Dihydropyridinone derivatives” (Bayer Pharma Aktiengesellschaft, priority 2004, dated 2012).

Experiments:
[1] = target: T1, human neutrophil elastase (HNE) (Homo sapiens, UniProt P08246); assay: In vitro inhibition of HNE using a fluorogenic peptide substrate; type: biochemical; conditions: substrate MeOSuc-Ala-Ala-Pro-Val-AMC, 384 MTP format
T1 construct: purchased SERVA Electrophoresis GmbH, Heidelberg, Germany #20927.01
T1 sequence (P08246 30-267): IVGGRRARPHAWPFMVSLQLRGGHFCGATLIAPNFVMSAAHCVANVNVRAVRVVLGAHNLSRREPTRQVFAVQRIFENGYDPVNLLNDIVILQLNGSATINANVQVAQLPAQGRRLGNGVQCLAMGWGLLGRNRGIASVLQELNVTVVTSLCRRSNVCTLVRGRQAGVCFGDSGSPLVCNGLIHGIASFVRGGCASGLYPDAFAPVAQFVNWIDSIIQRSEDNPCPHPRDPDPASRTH
Method: I. In vitro Enzyme Assays of Human Neutrophil Elastase (HNE)
assay buffer: 0.1 M HEPES-NaOH buffer pH 7.4, 0.5 M NaCl, 0.1% (w/v) bovine serum albumin;
suitable concentration (see below) of HNE (18 U/mg lyophil., #20927.01, SERVA Electrophoresis GmbH, Heidelberg, Germany) in assay buffer;
suitable concentration (see below) of substrate in assay buffer;
suitable concentration of test compounds diluted with assay buffer from a 10 mM stock solution in DMSO.
In vitro Inhibition of HNE Using a Fluorogenic Peptide Substrate (Continuous Read-out Signal, 384 MTP Assay Format):
In this protocol, the elastase substrate MeOSuc-Ala-Ala-Pro-Val-AMC (#324740, Calbiochem-Novabiochem Corporation, Merck KGaA, Darmstadt, Germany) is used. The test solution is prepared by mixing 10 μl of test compound dilution, 20 μl of HNE enzyme dilution (final concentration 8-0.4 μU/ml, routinely 2.1 μU/ml) and 20 μl of substrate dilution (final concentration 1 mM-1 μM, routinely 20 μM), respectively. The solution is incubated for 0-2 hrs at 37° C. (routinely one hour). The fluorescence of the liberated AMC due to the enzymatic reaction is measured at 37° C. (TECAN spectra fluor plus plate reader). The rate of increase of the fluorescence (ex. 395 nm, em. 460 nm) is proportional to elastase activity. IC50 values are determined by RFU-versus-[I] plots. Km and Km(app.) values are determined by Lineweaver-Burk plots and converted to Ki values by Dixon plots.

[2] = system: human polymorphonuclear cells (PMNs); assay: In vitro PMN elastolysis assay; type: cell-based; conditions: mean±s.e.m.
Method: In vitro PMN Elastolysis Assay:
This assay is used to determine the elastolytic potential of human polymorphonuclear cells (PMNs) and assess the proportion of degradation due to neutrophil elastase [cf. Z. W. She et al., Am. J Respir. Cell. Mol. Biol. 9, 386-392 (1993)].
Tritiated elastin, in suspension, is coated on to a 96 well plate at 10 μg per well. Test and reference [ZD-0892 (J. Med. Chem. 40, 1876-1885, 3173-3181 (1997), WO 95/21855) and α1 protease inhibitor (α1PI)] compounds are added to the wells at the appropriate concentrations. Human PMNs are separated from peripheral venous blood of healthy donors and resuspended in culture media. The neutrophils are added to the coated wells at concentrations ranging between 1×10^6 to 1×10^5 cells per well. Porcine pancreatic elastase (1.3 μM) is used as a positive control for the assay, and α1PI (1.2 μM) is used as the positive inhibitor of neutrophil elastase. The cellular, control is PMNs without compound at each appropriate cell density. The cells plus compounds are incubated in a humidified incubator at 37° C. for 4 hours. The plates are centrifuged to allow the harvest of cell supernatant only. The supernatant is transferred in 75 μl volumes to corresponding wells of a 96 well Lumaplate™ (solid scintillant containing plates). The plates are dried until no liquid is visible in the wells and read in a beta counter for 3 minutes per well. […]

Compound `COc1ccc(CN(C)C(=O)C2C(=O)N(c3cccc(C(F)(F)F)c3)C(C)=C(C(C)=O)C2c2ccc(C#N)cc2)cc1` (centres unmarked) [Example 19] has an IC50 [1] of 0.04 µM.
Compound `CC(=O)C1=C(C)N(c2cccc(C(F)(F)F)c2)C(=O)C(C(=O)N2CCN(CCN3CCOCC3)CC2)C1c1ccc(C#N)cc1` (centres unmarked) [Example 45] has an IC50 [1] of 0.07 µM.
Work on `CC(=O)C1=C(C)N(c2cccc(C(F)(F)F)c2)C(=O)C(C(=O)N2CCN3CCCC3C2)C1c1ccc(C#N)cc1` (centres unmarked) [Example 34] yielded an IC50 [1] of 0.06 µM.
For “α1PI: α1 protease inhibitor, used as the positive inhibitor of neutrophil elastase”, the “inhibition of 3H-elastin elastolysis” value ([2]; at 1.2 μM, n=3 different donors at 3.6×10^5 cells per well) was 83.46±3.97%.
For `COCCOCCCNC(=O)C1C(=O)N(c2cccc(C(F)(F)F)c2)C(C)=C(C(C)=O)C1c1ccc(C#N)cc1` (centres unmarked) [Example 61], the IC50 [1] was 0.05 µM.
For `COc1ccc(C(=O)N[C@H](C(=O)N2CCC[C@H]2C(=O)N[C@H](C(=O)C(F)(F)F)C(C)C)C(C)C)cc1` [ZD-0892], the IC50 ([2]; n=2 different donors at 3.6×10^5 cells per well) was 0.0455 ± 0.00775 µM.
Work on `CC(=O)C1=C(C)N(c2cccc(C(F)(F)F)c2)C(=O)C(C(=O)N(C)c2cccc(C)c2)C1c1ccc(C#N)cc1` (centres unmarked) [Example 27] yielded an IC50 [1] of 0.03 µM.
With `CCOC(=O)N1CCN(C(=O)C2C(=O)N(c3cccc(C(F)(F)F)c3)C(C)=C(C(C)=O)C2c2ccc(C#N)cc2)CC1` (centres unmarked) [Example 54] the IC50 [1] was 0.06 µM.
